Measurements as given in paper PMC6801448, “The Antioxidant and Antiproliferative Activities of 1,2,3-Triazolyl-L-Ascorbic Acid Derivatives” (International Journal of Molecular Sciences, 2019).
Entries after “also recorded” stand apart in the source; their conditions may differ.

Experiments:
MCF-7 cells [1] = experiment: Seahorse XF Cell Mito Stress Test, MCF-7; assay type: cell-based, Human
Protocol: The Seahorse XF Cell Mito Stress Test was used for measurements of mitochondrial respiration by direct assessment of the oxygen consumption rate (OCR), of treated and untreated cells on the Seahorse XFe24 Analyzer, (Agilent, Santa Clara, CA, USA). Key parameters of the mitochondrial function were measured by direct assessment of the OCR, by use of the Mito Stress Test (Agilent, Agilent, Santa Clara, CA, USA). The Mito Stress Test uses modulators of respiration that target components of the electron transport chain in the mitochondria. The compounds added to the reaction were: oligomycin, mitochondrial oxidative phosphorylation uncoupler carbonyl cyanide-4-(trifluoromethoxy)phenylhydrazone (FCCP), and the mix of rotenone and antymicin A. These were directly injected to the cell growth medium containing cells treated with selected L-ASA derivatives to determine the production of ATP, respiration at maximal level, and the non-mitochondrial respiration. Measured parameters were used for calculation of the proton leakage, spare respiratory capacity, and basal respiration. The assay was performed according to the manufacturer’s instructions (SeaHorse—Mito Stress Test: Agilent, Santa Clara, CA, USA). Briefly, selected compound 4e was tested due to its selective antiproliferative effect on MCF-7 cells. […] […] The experiment was performed with biological duplicates.

WI-38 (lung fibroblasts) = experiment: MTT proliferation assay, WI-38; assay type: cell-based; conditions: Homo sapiens, 72 h, normal lung fibroblasts
Summary of the method: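 Read-out: A570 after 3 h MTT and DMSO solubilisation, converted to percentage of growth per NIH formulas; IC50 by regression analysis. Exposure: 72 h, 0.01–100 μM, 5000 cells/well plated 24 h earlier in DMEM/10% FBS.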

MCF-7 cells [2] = experiment: Annexin V apoptosis detection assay; assay type: cell-based, Human
Protocol: A total of 2 × 10^4 MCF-7 cells were seeded into 8-well Nunc Lab-Tek II Chamber Slide system (Thermo Fischer Scientific, Waltham, MA, USA), and treated with compound 4e at 1 × IC50 and 2 × IC50 for 24 and 48 h. The assay (Annexin-V-FLUOS Staining kit, Roche Applied Science, Penzberg, Germany) was preformed according to the manufacturer protocol. Slides were analyzed by fluorescence microscopy (Zeiss Axio Observer Z1 Inverted Phase Contrast Fluorescent Microscope, Jena, Germany)).

[3] = system: hydroxylated HIF-1α (Pro564); experiment: Western blot of hydroxy-HIF-1α in MCF-7 cells; assay type: cell-based, Human; conditions: MCF-7, 6.72 µM, 48 h
Protocol: (§1) Protein lysates were prepared using RIPA buffer containing cocktail of protease and phosphatase inhibitors (Roche, Basel, Switzerland). Amounts of 50 μg of proteins were resolved on 12% SDS polyacrylamide gels using the Mini-protean cell (Bio-Rad, Hercules, CA, USA). The membranes were incubated with primary antibodies raised against hydroxy-HIF-1α (Pro564) (HIF-1α, 1:1000, rabbit mAb, Cell Signaling Technology, NL) and NOS2 (1:500, mouse mAb, SantaCruzBiotechnology, Dallas, TX, USA) at 4 °C overnight. A secondary antibody linked to anti-mouse (1:1000, Dako, Santa Clara, CA, USA) was used. The signal was visualized by the Western Lightening Chemiluminescence Reagent Plus Kit (Perkin Elmer, Massachusetts, MA, USA) on the ImageQuant LAS500 (GE Healthcare, Chicago, IL, USA), and as a loading control, α-tubulin (1:1000, mouse mAb, Sigma, Sigma Aldrich, Darmstadt, Germany) was used. The signal intensities of bands were normalized and compared in Quantity One software (Bio-Rad, Hercules, CA, USA). Differences in protein relative expression status obtained by western blot analysis were analyzed by two-tailed, paired t-tests (p < 0.05) in the Statistica software package (v.12.0).

NOS2 = experiment: Western blot of NOS2 in MCF-7 cells; assay type: cell-based, Human; conditions: MCF-7, 6.72 µM, 48 h
Protocol: as §1

[4] = MCF-7, 24 h, 6.72 µM (1 × IC50)
[5] = MCF-7, 24 h, 13.44 µM (2 × IC50)
[6] = MCF-7, 24 h, 1 × IC50, versus untreated cells
[7] = MCF-7, 48 h, 6.72 µM (1 × IC50)
[8] = MCF-7, 48 h, 13.44 µM (2 × IC50)

Compound: O=C1O[C@H]([C@@H](O)CO)C(O)=C1O [L-ASA, L-ascorbic acid]
- mitochondrial activity (MCF-7 cells [1]; 24 h, lower concentration (50 mM), Figure 5 panel A (MCF-7 and HFF-1)): did not act on the mitochondrial activity
- basal cell respiration and ATP production (MCF-7 cells [1]; MCF-7, 24 h, higher concentrations): decreased the basal cell respiration and ATP production

Compound: O=C1O[C@H]([C@@H](O)Cn2cc(-c3ccc(Br)cc3)nn2)C(O)=C1O [Compound 4e, 6-[4-(4-bromophenyl)-1,2,3-triazol-1-yl]-6-deoxy-L-ascorbic acid]
- IC50 (WI-38 (lung fibroblasts)): 73.9 µM
- Early Apoptosis (%) (MCF-7 cells [2]; [4]): 30.6%
- Late Apoptosis (%) (MCF-7 cells [2]; [4]): 6.4%
- Necrosis (%) (MCF-7 cells [2]; [4]): 0.8%
- Early Apoptosis (%) (MCF-7 cells [2]; [5]): 5.3%
- Late Apoptosis (%) (MCF-7 cells [2]; [5]): 38.1%
- Necrosis (%) (MCF-7 cells [2]; [5]): 15.9%
- increase in early apoptotic cell population (MCF-7 cells [2]; [6]): 12.4%
- increase in late apoptotic cell population (MCF-7 cells [2]; [6]): 2.0%
- Early Apoptosis (%) (MCF-7 cells [2]; [7]): 46.6%
- Late Apoptosis (%) (MCF-7 cells [2]; [7]): 4.2%
- Necrosis (%) (MCF-7 cells [2]; [7]): 0.8%
- Early Apoptosis (%) (MCF-7 cells [2]; [8]): 9.1%
- Late Apoptosis (%) (MCF-7 cells [2]; [8]): 2.3%
- Necrosis (%) (MCF-7 cells [2]; [8]): 0%
- percentage of cells in early apoptosis higher than in untreated cells (MCF-7 cells [2]; MCF-7, 48 h, 1 × IC50, versus untreated cells): 35.2%
- hydroxylated HIF-1α (Pro564) expression [3]: statistically significant increase; also recorded: strongly increased
- NOS2 expression (NOS2): decreased expression; also recorded: somewhat decreased
- basal respiration and ATP production (MCF-7 cells [1]; MCF-7, 24 h, IC50 concentration (6.72 µM) and 2 × IC50 (13.44 µM)): increased the basal respiration and ATP production
- cellular mitochondrial metabolism (MCF-7 cells [1]; MCF-7, 24 h, lower tested concentration (3.36 µM)): lowered cellular mitochondrial metabolism
- melting point: 159 to 160 °C
